Assay results reported in patent US20240116920A1 (priority 2020, published 2024).

What was measured:
JAK3 = molecular target: T1, JAK3 (Homo sapiens, UniProt P52333); experiment: biochemical
T1 sequence (P52333 1-1124): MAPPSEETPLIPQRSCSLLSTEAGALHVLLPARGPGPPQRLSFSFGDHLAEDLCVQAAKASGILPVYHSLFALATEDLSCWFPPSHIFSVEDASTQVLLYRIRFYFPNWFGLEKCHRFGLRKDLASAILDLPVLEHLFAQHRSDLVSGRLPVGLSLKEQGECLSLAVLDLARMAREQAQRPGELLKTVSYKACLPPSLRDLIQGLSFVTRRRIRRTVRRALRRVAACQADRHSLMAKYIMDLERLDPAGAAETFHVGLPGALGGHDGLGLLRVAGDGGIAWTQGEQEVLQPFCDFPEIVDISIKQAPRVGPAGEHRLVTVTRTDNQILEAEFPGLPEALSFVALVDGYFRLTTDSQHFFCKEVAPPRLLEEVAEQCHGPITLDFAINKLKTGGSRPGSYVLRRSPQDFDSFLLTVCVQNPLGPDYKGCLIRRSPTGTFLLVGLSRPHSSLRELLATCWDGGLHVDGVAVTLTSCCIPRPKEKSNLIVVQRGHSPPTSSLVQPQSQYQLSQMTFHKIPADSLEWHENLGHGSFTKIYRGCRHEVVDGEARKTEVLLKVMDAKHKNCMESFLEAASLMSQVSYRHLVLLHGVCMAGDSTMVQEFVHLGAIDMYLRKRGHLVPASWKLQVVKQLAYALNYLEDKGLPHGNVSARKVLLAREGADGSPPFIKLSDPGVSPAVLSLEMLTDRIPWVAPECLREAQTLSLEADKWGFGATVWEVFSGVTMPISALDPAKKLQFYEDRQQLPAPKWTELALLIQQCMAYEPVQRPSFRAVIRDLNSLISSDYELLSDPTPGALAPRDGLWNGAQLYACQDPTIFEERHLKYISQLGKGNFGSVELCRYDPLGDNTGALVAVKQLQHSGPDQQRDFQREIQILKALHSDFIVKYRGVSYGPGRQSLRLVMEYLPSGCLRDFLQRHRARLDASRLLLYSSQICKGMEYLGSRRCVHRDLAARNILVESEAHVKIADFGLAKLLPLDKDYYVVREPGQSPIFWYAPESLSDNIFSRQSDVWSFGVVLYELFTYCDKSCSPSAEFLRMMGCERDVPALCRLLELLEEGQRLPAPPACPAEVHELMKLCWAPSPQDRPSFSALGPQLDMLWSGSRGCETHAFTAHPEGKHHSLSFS

TYK2 = TYK2 (Homo sapiens, UniProt P29597); experiment: biochemical
Chain of TYK2 (P29597 whole entry): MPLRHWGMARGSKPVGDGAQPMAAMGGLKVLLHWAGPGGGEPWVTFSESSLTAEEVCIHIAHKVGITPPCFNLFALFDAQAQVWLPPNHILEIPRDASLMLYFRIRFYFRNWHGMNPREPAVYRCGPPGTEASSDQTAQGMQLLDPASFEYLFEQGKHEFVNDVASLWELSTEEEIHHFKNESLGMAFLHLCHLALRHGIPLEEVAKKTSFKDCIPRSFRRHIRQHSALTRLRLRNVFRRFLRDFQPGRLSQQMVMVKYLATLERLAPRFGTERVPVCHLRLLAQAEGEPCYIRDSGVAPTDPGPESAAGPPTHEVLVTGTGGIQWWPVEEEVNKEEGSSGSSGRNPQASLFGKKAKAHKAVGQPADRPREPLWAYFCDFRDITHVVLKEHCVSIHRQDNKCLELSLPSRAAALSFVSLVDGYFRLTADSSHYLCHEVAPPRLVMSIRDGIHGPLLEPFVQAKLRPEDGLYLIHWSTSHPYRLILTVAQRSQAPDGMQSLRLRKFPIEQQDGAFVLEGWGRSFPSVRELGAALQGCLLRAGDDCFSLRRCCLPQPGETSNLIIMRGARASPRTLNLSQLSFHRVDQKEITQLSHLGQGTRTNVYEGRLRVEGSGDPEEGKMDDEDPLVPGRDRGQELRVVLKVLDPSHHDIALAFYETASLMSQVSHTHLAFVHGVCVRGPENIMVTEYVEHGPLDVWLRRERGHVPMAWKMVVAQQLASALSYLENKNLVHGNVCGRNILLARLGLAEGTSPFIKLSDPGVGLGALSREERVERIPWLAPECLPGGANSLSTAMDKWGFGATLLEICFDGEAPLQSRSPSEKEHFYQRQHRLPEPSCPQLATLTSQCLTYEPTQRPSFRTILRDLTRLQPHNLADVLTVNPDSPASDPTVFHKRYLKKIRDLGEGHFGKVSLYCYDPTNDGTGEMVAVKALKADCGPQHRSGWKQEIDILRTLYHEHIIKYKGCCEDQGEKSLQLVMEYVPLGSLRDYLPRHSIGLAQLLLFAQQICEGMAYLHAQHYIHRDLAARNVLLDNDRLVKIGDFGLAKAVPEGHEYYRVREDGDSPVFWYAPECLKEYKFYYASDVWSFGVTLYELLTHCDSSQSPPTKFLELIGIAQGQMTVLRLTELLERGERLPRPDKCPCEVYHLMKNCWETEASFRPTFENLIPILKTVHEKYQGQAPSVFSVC

JAK2 = JAK2 (Homo sapiens, UniProt O60674); experiment: biochemical
Chain of JAK2 (O60674 whole entry): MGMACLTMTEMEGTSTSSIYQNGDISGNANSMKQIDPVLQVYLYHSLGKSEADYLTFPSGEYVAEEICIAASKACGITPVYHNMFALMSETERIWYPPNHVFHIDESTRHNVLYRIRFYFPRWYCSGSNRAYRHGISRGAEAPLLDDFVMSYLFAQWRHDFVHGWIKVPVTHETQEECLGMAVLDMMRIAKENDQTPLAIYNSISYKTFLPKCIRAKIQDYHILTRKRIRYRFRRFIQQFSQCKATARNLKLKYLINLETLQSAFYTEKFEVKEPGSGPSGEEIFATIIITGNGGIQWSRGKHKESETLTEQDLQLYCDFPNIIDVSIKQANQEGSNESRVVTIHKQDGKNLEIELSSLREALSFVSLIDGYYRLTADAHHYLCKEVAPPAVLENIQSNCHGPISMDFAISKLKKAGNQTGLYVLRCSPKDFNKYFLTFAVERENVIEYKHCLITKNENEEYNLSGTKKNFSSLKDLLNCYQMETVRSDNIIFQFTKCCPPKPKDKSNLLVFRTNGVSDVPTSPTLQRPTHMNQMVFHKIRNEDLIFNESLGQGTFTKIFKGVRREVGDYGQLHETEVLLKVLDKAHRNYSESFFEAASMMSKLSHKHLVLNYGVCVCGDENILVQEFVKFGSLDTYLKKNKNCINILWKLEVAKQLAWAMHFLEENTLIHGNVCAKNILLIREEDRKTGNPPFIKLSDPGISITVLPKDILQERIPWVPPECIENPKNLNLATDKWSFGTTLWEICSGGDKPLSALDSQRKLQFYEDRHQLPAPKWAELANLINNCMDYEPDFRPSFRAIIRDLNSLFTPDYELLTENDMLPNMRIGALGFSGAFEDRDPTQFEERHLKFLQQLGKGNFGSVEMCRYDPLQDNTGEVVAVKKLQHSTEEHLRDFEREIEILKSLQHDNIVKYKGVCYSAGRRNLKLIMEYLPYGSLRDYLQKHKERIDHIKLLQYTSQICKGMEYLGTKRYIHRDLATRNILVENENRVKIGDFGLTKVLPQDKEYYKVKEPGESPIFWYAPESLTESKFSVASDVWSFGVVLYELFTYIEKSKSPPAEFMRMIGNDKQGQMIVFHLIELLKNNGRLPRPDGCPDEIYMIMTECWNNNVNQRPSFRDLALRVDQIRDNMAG

JAK1/STAT3 signaling = experiment: Immunobit cell-based pSTAT3 and pSTAT5 immunoassay; design: species or system human
[1] = tested on: LX-2 human hepatic stellate cells; experiment: TGF-β-induced LX-2 cell proliferation (CCK8); type: cell-based

`CNC(=O)c1cnc2[nH]ccc2c1N[C@@H]1CCN(Cc2cnc(C(F)(F)F)nc2)[C@H](C)C1` (racemic) [compound 49] was tested, and the IC50 (JAK3) was 8.39 nM, the IC50 (TYK2) was 36.9 nM and the IC50 (JAK2) was 8.78 nM.
In the case of `O=C(Nc1nc2cccc(-c3ccc(CN4CCS(=O)(=O)CC4)cc3)n2n1)C1CC1` [filgotinib], the “effect on JAK/STAT signaling (pSTAT3, pSTAT5)” value (JAK1/STAT3 signaling) is reported as “reduced pSTAT3 and pSTAT5, but with less effect than 31g”.
`COC(=O)c1ccc2c(c1)NC(=O)/C2=C(\Nc1ccc(N(C)C(=O)CN2CCN(C)CC2)cc1)c1ccccc1` [nintedanib] was tested, and the “effect on JAK/STAT signaling (pSTAT3, pSTAT5)” value (JAK1/STAT3 signaling) was “did not affect the JAK/STAT pathway”, the “inhibitory effect on LX-2 proliferation induced by TGF-β” value ([1]; LX-2, TGF-β-induced, CCK8) was “dose-dependent inhibitory effects” and the “inhibitory effect on LX-2 cell growth versus tofacitinib or filgotinib” value ([1]; incubation with TGF-β for 72 h) was “superior to those of tofacitinib or filgotinib”.
